The source of these data is article PMC4036227 (Journal of medicinal chemistry, 2013).

The target of this assay is WT (S31) M2 proton channel (full length AM2 protein) (Influenza A virus, UniProt P0DOF5). In words: biochemical. Particulars: read-out: WT % inhibition (TEVC).
Sequence of WT (S31) M2 proton channel (full length AM2 protein) (P0DOF5 whole entry): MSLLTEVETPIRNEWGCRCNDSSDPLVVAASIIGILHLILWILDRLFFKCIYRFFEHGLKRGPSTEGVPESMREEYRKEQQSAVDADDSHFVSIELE

Turning to `COC(=O)[C@H](Cc1cnc[nH]1)NCC12CC3CC(CC(C3)C1)C2` [Compound 3], the inhibition at 100 µM came out at 21%.
